Measured values: US8916499B2, “Herbicidal compositions comprising 4-amino-3-chloro-5-fluoro-6-(4-chloro-2-fluoro-3-methoxyphenyl) pyridine-2-carboxylic acid or a derivative thereof and a protoporphyrinogen oxidase inhibitor” (Dow AgroSciences LLC, priority 2012, dated 2014)
Values joined by “and” are separate entries in the source; they are usually repeats but may differ in a detail not shown here. Equal entries are not always repeated.

Key:
[1] = tested on: ECHCO; experiment: Postemergence foliar-applied weed control, direct seeded rice, greenhouse (Example I); format: in vivo, Echinochloa colona (L.) Link
[2] = tested on: LEFCH; experiment: In-water applied weed control, transplanted paddy rice, greenhouse (Example II); format: in vivo, Leptochloa chinensis (L.) Nees
[3] = tested on: IPOHE; experiment: Postemergence foliar-applied weed control, direct seeded rice, greenhouse (Example I); format: in vivo, Ipomoea hederacea Jacq.; conditions: g ae/ha Compound A Benzyl Ester+g ai/ha oxadiazon: r33 17.5+0, r34 0+250, r35 17.5+250
[4] = tested on: CYPIR; experiment: as above; format: in vivo, Cyperus iria L.
[5] = tested on: CYPRO; experiment: In-water applied weed control, transplanted paddy rice, greenhouse (Example II); format: in vivo, Cyperus rotundus L.
[6] = tested on: PAPRH; experiment: Postemergence foliar herbicidal activity of mixtures in cereal crops, greenhouse (Example III); format: in vivo, Papaver rhoeas L.; conditions: foliar-applied
Protocol: Seeds of the desired test plant species were planted in Sun Gro MetroMix® 306 planting mixture, which typically has a pH of 6.0 to 6.8 and an organic matter content of about 30 percent, in plastic pots with a surface area of 103.2 square centimeters (cm^2). When required to ensure good germination and healthy plants, a fungicide treatment and/or other chemical or physical treatment was applied. The plants were grown for 7-36 days in a greenhouse with an approximate 14 hour photoperiod which was maintained at about 18° C. during the day and about 17° C. during the night. Nutrients and water were added on a regular basis and supplemental lighting was provided with overhead metal halide 1000-Watt lamps as necessary. The plants were employed for testing when they reached the second or third true leaf stage.
Treatments consisted of the benzyl ester of 4-amino-3-chloro-5-fluoro-6-(4-chloro-2-fluoro-3-methoxy-phenyl)pyridine-2-carboxylic acid (Compound A), formulated as an SC, a second cereal herbicide alone and then both in combination.
Other herbicidal components were applied on an active ingredient basis and included PSII-inhibiting herbicides.
Measured aliquots of benzyl ester of 4-amino-3-chloro-5-fluoro-6-(4-chloro-2-fluoro-3-methoxy-phenyl)pyridine-2-carboxylic acid (Compound A) were placed in 25 milliliter (mL) glass vials and diluted in a volume of 1.25% (v/v) Agri-Dex® crop oil concentrate to obtain stock solutions. Compound requirements are based upon a 12 mL application volume at a rate of 187 liters per hectare (L/ha). Spray solutions of the second cereal herbicide and experimental compound mixtures were prepared by adding the stock solutions to the appropriate amount of dilution solution to form 12 mL spray solution with active ingredients in two- and three-way combinations. Formulated compounds were applied to the plant material with an overhead Mandel track sprayer equipped with an 8002E nozzle calibrated to deliver 187 L/ha over an application area of 0.503 square meters (m^2) at a spray height of 18 inches (46 cm) above average plant canopy. Control plants were sprayed in the same manner with the solvent blank.
The treated plants and control plants were placed in a greenhouse as described above and watered by sub-irrigation to prevent wash-off of the test compounds. After 20-22 days, the condition of the test plants as compared with that of the control plants was determined visually and scored on a scale of 0 to 100 percent where 0 corresponds to no injury and 100 corresponds to complete kill.
Colby's equation was used to determine the herbicidal effects expected from the mixtures (Colby, S. R. 1967. Calculation of the synergistic and antagonistic response of herbicide combinations. Weeds 15:20-22.).
The following equation was used to calculate the expected activity of mixtures containing two active ingredients, A and B: Expected=A+B−(A×B/100)

[7] = tested on: ECHCG; experiment: Postemergence foliar-applied weed control, direct seeded rice, greenhouse (Example I); format: in vivo, Echinochloa crusgalli (L.) Beauv.
[8] = tested on: ECHOR; experiment: In-water applied weed control, transplanted paddy rice, greenhouse (Example II); format: in vivo, Echinochloa oryzoides (Ard.) Fritsch
[9] = g ae/ha Compound A Benzyl Ester+g ai/ha carfentrazone-ethyl: r11 8.75+0, r12 0+3.5, r13 0+7, r14 0+14, r15 8.75+3.5, r16 8.75+7, r17 8.75+14

For COc1c(Cl)ccc(-c2nc(C(=O)OCc3ccccc3)c(Cl)c(N)c2F)c1F [Compound A Benzyl Ester, benzyl ester of 4-amino-3-chloro-5-fluoro-6-(4-chloro-2-fluoro-3-methoxy-phenyl)pyridine-2-carboxylic acid], the “Visual Weed Control (%) - 21 DAA ECHCO Obs” value ([1]; g ae/ha Compound A Benzyl Ester+g ai/ha acifluorfen sodium: r11 8+0, r12 0+140, r13 0+280, r14 8+140, r15 8+280) was 40%, the “Visual Weed Control (%) - 20 DAA ECHCO Obs” value ([1]; g ae/ha Compound A Benzyl Ester+g ai/ha pyraclonil: r15 4.38+0, r16 0+33.75, r17 0+67.5, r18 0+135, r19 4.38+33.75, r20 4.38+67.5, r21 4.38+135) was 40% and the “Visual Weed Control (%) - 20 DAA ECHCO Obs” value ([1]; g ae/ha Compound A Benzyl Ester+g ai/ha saflufenacil: r14 4.38+0, r15 8.75+0, r16 0+10, r17 0+20, r18 4.38+10, r19 8.75+10, r20 4.38+20, r21 8.75+20) was 60% and 80%. For the same molecule, the “Visual Weed Control (%) - 20 DAA LEFCH Obs” value ([2]; 4.38 g ae/ha alone) was 0%, the “Visual Weed Control (%) - 20 DAA LEFCH Obs” value ([2]; 8.75 g ae/ha alone) was 20% and the “Visual Weed Control (%) - 20 DAA LEFCH Obs” value ([2]; 17.5 g ae/ha alone) was 30%. The “Visual Weed Control (%) - 21 DAA IPOHE Obs” value [3] was 10%, the “Visual Weed Control (%) - 21 DAA CYPIR Obs” value ([4]; g ae/ha Compound A Benzyl Ester+g ai/ha bifenox (Fox ®): r17 8+0, r18 0+180, r19 0+360, r20 0+720, r21 8+180, r22 8+360, r23 8+720) was 30% and the “Visual Weed Control (%) - 21 DAA CYPIR Obs” value [4, 9] was 85%. For the same molecule, the “Visual Weed Control (%) - 21 DAA CYPIR Obs” value ([4]; g ae/ha Compound A Benzyl Ester+g ai/ha oxyfluorfen (technical): r27 4.38+0, r28 0+90, r29 0+180, r30 0+360, r31 4.38+90, r32 4.38+180, r33 4.38+360) was 30%, the “Visual Weed Control (%) - 21 DAA CYPIR Obs” value ([4]; g ae/ha Compound A Benzyl Ester+g ai/ha pyraflufen-ethyl: r17 8+0, r18 0+2.65, r19 0+5.3, r20 0+10.6, r21 8+2.65, r22 8+5.3, r23 8+10.6) was 35% and the “Visual Weed Control (%) - 20 DAA CYPIR Obs” value ([4]; g ae/ha Compound A Benzyl Ester+g ai/ha saflufenacil: r38 4.38+0, r39 0+5, r40 0+10, r41 0+20, r42 4.38+5, r43 4.38+10, r44 4.38+20) was 70%. The “Visual Weed Control (%) - 21 DAA CYPRO Obs” value ([5]; 4.38 g ae/ha alone) was 30%, the “Visual Weed Control (%) - 21 DAA CYPRO Obs” value ([5]; 8.75 g ae/ha alone) was 60% and the “Visual Weed Control (%) - 21 DAA CYPRO Obs” value ([5]; g ae/ha Compound A Benzyl Ester+g ai/ha oxyfluorfen (SC): r11 32+0, r12 0+135, r13 0+270, r14 32+135, r15 32+270) was 90%. For the same molecule, the “Visual Weed Control (%) - 20 DAA CYPRO Obs” value ([5]; g ae/ha Compound A Benzyl Ester+g ai/ha pyraclonil: r19 4.38+0, r20 8.75+0, r21 0+45, r22 0+90, r23 4.38+45, r24 8.75+45, r25 4.38+90, r26 8.75+90) was 20%, the “Visual Weed Control (%) - 21 DAA PAPRH Obs” value ([6]; 5 g ai/ha alone) was 28% and the “Visual Weed Control (%) - 21 DAA PAPRH Obs” value ([6]; 10 g ai/ha alone) was 35%. The “Visual Weed Control (%) - 21 DAA ECHCG Obs” value [7, 9] was 55%, the “Visual Weed Control (%) - 23 DAA ECHCG Obs” value ([7]; g ae/ha Compound A Benzyl Ester+g ai/ha oxyfluorfen (SC): r25 4.38+0, r26 0+90, r27 0+180, r28 0+360, r29 4.38+90, r30 4.38+180, r31 4.38+360) was 40% and the “Visual Weed Control (%) - 21 DAA ECHCG Obs” value ([7]; g ae/ha Compound A Benzyl Ester+g ai/ha pyraflufen-ethyl: r11 8+0, r12 0+5.3, r13 0+10.6, r14 8+5.3, r15 8+10.6) was 45%. The “Visual Weed Control (%) - 20 DAA ECHOR Obs” value ([8]; 4.38 g ae/ha alone) was 10%, the “Visual Weed Control (%) - 21 DAA ECHOR Obs” value ([8]; 8 g ae/ha alone) was 20% and the “Visual Weed Control (%) - 20 DAA ECHOR Obs” value ([8]; 8.75 g ae/ha alone) was 15%. For the same molecule, the “Visual Weed Control (%) - 21 DAA ECHOR Obs” value ([8]; 8.75 g ae/ha alone) was 25%, the “Visual Weed Control (%) - 21 DAA ECHOR Obs” value ([8]; 16 g ae/ha alone) was 45% and the “Visual Weed Control (%) - 21 DAA ECHOR Obs” value ([8]; 17.5 g ae/ha alone) was 60%. The “Visual Weed Control (%) - 21 DAA ECHOR Obs” value ([8]; 32 g ae/ha alone) was 60%.
